Results reported in patent US20250282895A1, “PHARMACEUTICAL COMPOSITIONS OF CHEMOTHERAPEUTIC AGENTS BASED ON BETA-S[…]-AMINO ACID DERIVATIVES” (priority 2021, published 2025).
Where a name gives a salt, the structure may show the parent alone.

Experiments:
[1] = Stability of Compound (1c) hydrochloride salt/SBE6.5-β-CD guest-host inclusion complex in 0.9% saline (HPLC/UV); format: physicochemical; details: SBE6.5-β-CD complex in 0.9% saline
Method: A stock solution was prepared by dissolving 68.8 mg (0.206 mmol) of Compound (1c) (free base) in about 20.0 mL of a mixture of acetonitrile/water (1:1, v/v) with vortexing in a clean graduated glass cylinder (25 mL). A solution of 0.407 mL of 0.5072 M aq. HCl (0.206 mmol, 1.0 eq.; Fluka, 318957) was added with gentle vortexing, and the resulting clear solution was further diluted to 25.0 mL with a mixture of acetonitrile/water (1:1, v/v) with gentle vortexing to afford a stock solution of Compound (1c) as a mono-HCl salt of a concentration 2.75 mg/mL. This solution was filtered through a 0.45 μm nylon syringe filter into a clean 50 mL Erlenmeyer flask. Aliquots of 2.0 mL (2× 1.0 mL; 2× 2.75 mg) of the stock solution were rapidly pipetted into clean 12 mL scintillation vials. The aliquots were frozen at −78° C. (dry ice/acetone bath) and lyophilized at about 100 mTorr for about 16 hours to provide test vials each containing 6.1 mg (0.0165 mmol) of Compound (1c) mono-hydrochloride salt (mono-HCl salt) (corresponding to 5.5 mg of Compound (1c)),free base, as a colorless powdery solid.
A cyclodextrin derivative (270 mg; SBE6.5-β-CD, Captisol®, average MW 2,163 g/mol) was added to 6.1 mg (0.0165 mmol) of(S)-3-amino-4-(5-(bis(2-chloroethyl)amino)-2-methylphenyl) butanoic acid mono hydrochloride salt (Compound (1c) mono-HCl salt) in a 12 mL glass vial and dissolved in 3 mL to 4 mL of double-distilled water by vortexing for about 30 sec to provide a clear, colorless solution. The solution was filtered through a 0.45 μm nylon syringe filter into a 12 mL glass vial. The filter was washed twice with double-distilled water (each about 0.5 mL) to provide a clear colorless solution having a pH from 4.4 to 4.7. The filtered solution was frozen at −78° C. (dry ice/acetone bath) and the solvent was lyophilized off at about 100 mTorr for about 16 hours to provide a colorless powdery solid consisting of 6.1 mg (0.0165 mmol) of Compound (1c) mono-HCl salt (corresponding to 5.5 mg of Compound (1c) as free base) and 270 mg of SBE6.5-β-CD, Captisol®). Several vials with the cyclodextrin derivative/Compound (1c) mono-HCl salt guest-host inclusion complex were prepared according to this method.
The cyclodextrin derivative/Compound (1c) mono-HCl salt guest-host inclusion complex was reconstituted by dissolving the guest-host inclusion complex in 0.86 mL of 0.9% saline to provide 1.0 mL of a solution having a nominal concentration of 6.1 mg/mL of Compound (1c) mono-HCl salt guest-host inclusion complex which equates to a nominal concentration of 5.5 mg/mL of the Compound (1c)) guest-host inclusion complex.
A 0.5 mL aliquot of this solution was diluted with 5.0 mL of 0.9% saline, and the pH adjusted with 5 μL of a saturated aqueous NaHCO3 solution to provide 5.5 mL of a clear, colorless solution having a nominal concentration of 0.5 mg/mL Compound (1c) compound and a pH from 5.3 to 5.5.
A 1.0 mL aliquot of the reconstituted solution was diluted with 4.5 mL of 0.9% saline, and the pH was adjusted with about 10 μL of a saturated aqueous NaHCO3 solution to provide 5.5 mL of a clear, colorless solution having a nominal concentration of 1.0 mg/mL of Compound (1c) and a pH of 5-6.
A 1.0 mL aliquot of the reconstituted solution was diluted with 1.75 mL of 0.9% saline, and the pH was adjusted with about 10 μL of a saturated aqueous NaHCO3 solution to provide 2.75 mL of a clear, colorless solution having a nominal concentration of 2.0 mg/mL of Compound (1c) and a pH of 5-6.
The solutions were placed in glass vials and stored at either room temperature (about 25° C.) or refrigerated (about 0° C.), and the amount of Compound (1c) was measured at intervals using analytical high pressure liquid chromatography coupled to a UV detector (HPLC/UV) as described in Example 4.

[2] = Stability (impurities) of Compound (1c):SBE6.5-β-CD formulations at different pH values; format: physicochemical; details: listed as Compound (1c) HCl salt, mono hydrochloride salt
Method: The stability of Compound (1c) in formulations containing a Compound (1c): SBE6.5-β-CD guest-host inclusion complex at different pH was determined by analytical HPLC/UV. The mass ratio of Compound (1c) to SBE6.5-β-CD was either 1:54 or 1:50.
To prepare the formulations, SBE6.5-β-CD was dissolved in water for injection (WFI) by continuous stirring until a clear solution was obtained. The solution was acidified by addition of 1 N HCl. Compound (1c) was dissolved in the acidified aqueous SBE6.5-β-CD solution and water was added at Q.S. to the final volume to prepare a solution with a nominal concentration of 5.0 mg/mL of Compound (1c). The pH was adjusted with 1 N HCl to the values shown in Table 7 which corresponded to the pH of the final formulation after reconstitution with 0.9% saline. The solution was filtered through a 0.22 μm syringe filter followed by lyophilization to dryness affording a colorless powdery solid. The freeze-dried lyophilizate was reconstituted with 0.9% saline to the nominal target concentration of 5.0 mg/mL of Compound (1c). […]
Analytical HPLC/UV was performed on a HPLC chromatograph equipped with a UV detector, a Waters Xbridge® C18 column (4.6× 150 mm; 5 μm) operated at 30° C. and a personal computer for data computation. Gradients of 0.01 M potassium dihydrogen phosphate solution (KH2PO4) solution adjusted to pH to 3.0 with phosphoric acid (H3PO4): acetonitrile=850:150 (v/v) (solvent A) and acetonitrile (MeCN; solvent B) were used in the analytical HPLC/UV analyses. The needle wash was performed with 50% aqueous acetonitrile. Prior to injection into the HPLC/UV system (10 μL injection volume), samples were diluted to a nominal concentration of 0.5 mg/mL of Compound (1c) with a 0.9 M sodium chloride (NaCl) and 0.1 N hydrochloric acid (HCl) diluent. The diluent solution was prepared from 5.26 g (90.0 mmol) of sodium chloride and 850 μL of concentrated hydrochloric acid (HCl) (36-38 wt-%, d 1.184, 1.00 g, 10.2 mmol) diluted to 100 mL solution.
The HPLC/UV method used employed a gradient from 10 vol-% of solvent B to 100 vol-% of solvent B with a 36 min runtime at a flow rate of 1.5 mL/min and UV detection at 2=220 nm.

[3] = Compound (1c):SBE6.5-β-CD 1:54, pH 4.1, 0 h, 5.0 mg/mL in 0.9% saline
[4] = Compound (1c):SBE6.5-β-CD 1:54, pH 4.1, Cake

Cc1ccc(N(CCCl)CCCl)cc1C[C@H](N)CC(=O)O [Compound (1c)•HCl, (S)-3-amino-4-(5-(bis(2-chloroethyl)amino)-2-methylphenyl) butanoic acid mono hydrochloride salt]
Compound (1c) (% AUC) ([1]; nominal 0.125 mg/mL, 0° C., 31 hours): 93 % AUC | Compound (1c) (% AUC) ([1]; nominal 0.125 mg/mL, 25° C., 2 hours): 98 % AUC | Compound (1c) (% AUC) ([1]; nominal 0.5 mg/mL, 0° C., 9 hours): 99 % AUC | Compound (1c) (% AUC) ([1]; nominal 0.5 mg/mL, 25° C., 2 hours): 97 % AUC | Compound (1c) (% AUC) ([1]; nominal 1.0 mg/mL, 0° C., 31 hours): 100 % AUC | Compound (1c) (% AUC) ([1]; nominal 1.0 mg/mL, 25° C., 2 hours): 91 % AUC | Compound (1c) (% AUC) ([1]; nominal 2.0 mg/mL, 0° C., 31 hours): 91 % AUC | Compound (1c) (% AUC) ([1]; nominal 2.0 mg/mL, 25° C., 2 hours): 99 % AUC | Impurity (% AUC) RRT 0.36 [2, 3]: 1.51 % AUC | Impurity (% AUC) RRT 1.31 [2, 3]: 0.18 % AUC | Impurity (% AUC) Total [2, 3]: 2.2 % AUC | Impurity (% AUC) RRT 0.36 [2, 4]: 1.51 % AUC | Impurity (% AUC) RRT 1.31 [2, 4]: 0.18 % AUC | Impurity (% AUC) Total [2, 4]: 2.13 % AUC
